| Structure (SMILES) | melting point [°C] |
| --- | --- |
| COc1ccc(-c2cccc(-c3ccc(OC)c(F)c3)n2)cc1F | 108 |
| COc1ccc(C(=O)N[C@H]2CCN(C)C[C@H]2c2ccc(OC)c(OC)c2)cc1 (relative stereo) | 223 to 226 |
| CCC(=O)N(CC)c1cccc(-c2ccnc3c(C#N)cnn23)c1 | 161 to 162 |
| O=C(O)c1cn(C2CC2)c2cc(N3CCNCC3)c(F)c(F)c2c1=O | > 300 |
| Nc1nc2ccccc2c2c1nc(CF)n2Cc1cc(-c2ccc(F)cc2)no1 | 192 to 193 |
| Cc1c(C(=O)Nc2ccc(N3CCN(C4CCOCC4)CC3)c(C#N)c2)cnn1-c1ccc(C(F)(F)F)cc1 | 274 |
| O=C(O)c1nc(Cl)sc1Cl | 191 |
| COc1ccc(C(C#Cc2ccccc2)CC(=O)N(C)C)cc1OC1CCCC1 (racemic) | 87 to 89 |
| Cc1coc2c1C(=O)CC(c1ccco1)C2 (centres undefined) | 60 to 61 |
| FC(F)(F)c1cccc(C2=CCN(CCc3ccc(-c4ccccc4)cc3)CC2)c1 | 114 to 116 |
| CC1=C(CN2CC(C(=O)O)C2)CCc2cc(OCCCc3ccc(F)cc3)ccc21 | 154 to 155 |
| CCCCc1ncc([N+](=O)[O-])c(O)n1 | 67 to 69 |
| CCCc1c(C)c(NC(=O)CC(C)(C)C)c(C)c2c1OCC2c1ccc(C(C)C)cc1 (centres undefined) | 145 to 148 |
| CC(=O)OC1C(N2CCCCC2)CC2C3CCC4CCC(O)CC4(C)C3CCC21C (centres undefined) | 239 to 240 |
| CNc1ccc(-c2c[nH]cn2)cc1 | 75 to 76 |
| CN(C)/C=c1\c2ccccc2c2[nH]c(=O)c3nccn3c12 | 293 |
| COc1cc2c(cc1OC)CC(N(CC(=O)O)C(=O)C(C)CSC(C)=O)C2 (centres undefined) | 135 to 137 |
| O=Cc1cccc(COc2cccc(-c3ccsc3)c2)c1 | 62 to 63 |
| Cc1nnc(C=Cc2ccccc2OC[C@@H](O)CN2CCC(c3ccc4ccccc4c3)CC2)o1 | 105 to 106 |
| Nc1ccccc1C(=O)Nc1ccc(Br)cc1 | 139 to 144 |
| CCC(C)c1nn(-c2ccc(C(F)(F)F)cn2)cc1CCCO (centres undefined) | 72 to 73 |

| Structure (SMILES) | melting point [°C] |
| --- | --- |
| COC(=O)c1ccc(S(C)(=O)=O)c(C=O)c1Cl | 98 to 105 |
| Cc1nn(-c2c(Cl)cc(C(F)(F)F)cc2Cl)c(C)c1-c1nc(C#N)c(C#N)[nH]1 | 80 to 83 |
| CCc1c(-c2ccc(OCc3ccccc3)cc2)c2c(C(=O)N(C)C)c(C(=O)O)c3cccc1n32 | 236 to 238 |
| CCCN(C(C)C)S(=O)(=O)NC(=O)c1cc(-n2c(=O)cc(C(F)(F)F)n(C)c2=S)c(F)cc1Cl | 74 to 75 |
| N#Cc1ccc(N2CCC(F)(F)C2)c2ccsc12 | 169 to 170 |
| CONS(=O)(=O)c1ccc(Cl)c(Cl)c1 | 146 to 147 |
| O=C1c2ccc(O)cc2OCN1CCO[N+](=O)[O-] | 131 to 133 |
| O=C(Nc1ccc(C2=CCN(Cc3ccccc3)CC2)cc1)c1ccccc1-c1ccccc1 | 142 |
| N#Cc1ccc(C(=O)NCCCCn2cnc3c(N)nc4ccccc4c32)cc1 | 223 to 225 |
| CCOC(=O)CN(C)C(=S)CCc1nc2c(F)c(F)cc(F)c2s1 | 83 to 85 |
| C=C1c2ccccc2CC(NO)c2ccccc21 (centres undefined) | 145 to 147 |
| CCOCCN(C(=O)N(CCCl)N=O)C1(O)C(CO)OC(OC2CCCCC2)C1O (centres undefined) | 62 to 64 |
| CCN(COC)c1cc(-c2ccnc(Nc3cccc(Cl)c3)n2)ccn1 | 114 to 115 |
| ClCc1c(Cl)c(Cl)c(Cl)c(CCl)c1Cl | 135 to 138 |
| O=C(O)CNC1CCc2ccccc21 (centres undefined) | 184 to 186 |
| Cc1cccc(C)c1N(Cc1ccon1)C(=O)CCl | 78 to 81 |
| CCc1nn(C2CCCC2)c2cc(C(=O)NCCC(=O)NO)ccc12 | 166 to 169 |
| C[C@H](N)Cn1ncc2ccc3oc(C(N)=O)nc3c21 | 60 to 65 |
| CCC1C=C(CCN(O)C(N)=O)c2ccccc21 (centres undefined) | 81 to 83 |
| CN(C)S(=O)(=O)c1cccc(Cl)n1 | 53 to 55 |

Further lines, results first:

| melting point [°C] | Structure (SMILES) |
| --- | --- |
| 210 to 211 | OCC1OC(n2cnc3c(NC4CCCCC4O)ncnc32)C(O)C1O (centres undefined) |
| 142 to 145 | CC(=O)OCCCNc1nnc(NCCCOC(C)=O)c2c1C(=O)c1ccccc1C2=O |
| 243 to 244 | Cc1cc2c(C(=O)C3=C(O)C4CCC(C4)C3=O)ccc(S(C)=O)c2o1 (centres undefined) |
| 122 to 123 | Cc1cc2c(cc1N(Cc1ccccc1)Cc1ccccc1)OC(=O)C2C (centres undefined) |
| 139 to 140 | CNc1cnc2ccc(Cl)cc2c1-c1ccccc1 |
| 218 to 220 | CC(C)c1[nH]nc2c1C(=O)c1c(NC(=O)CN3CCC(CN)CC3)cccc1-2 |
| 189 to 190 | COc1nc2cccc(C(=O)O)c2n1Cc1ccc(-c2ccccc2-c2nc(=O)o[nH]2)cc1 |
| 269 to 270 | COc1ccc2c(c1)c(C=C1SC(=N)NC1=O)c(C)n2C(=O)c1ccc(Cl)cc1 |
| 192 to 194 | Nc1nc2ccccc2c2c1nc(CCCOc1ccccc1)n2CCCNC(=O)c1ccccc1 |
| 120 | FC(F)(F)c1cccc(N2CCN(CCCCNc3cc(-c4ccccc4)ccn3)CC2)c1 |
| 157 to 158 | CC1=C(C(=O)c2ccccc2F)C(=O)C2C=CC=CC2C1=O (centres undefined) |
| 286 to 291 | CCCn1c(=O)[nH]c(=O)c2[nH]c(/C=C/c3cc(OC)c(OC)c(OC)c3)nc21 |
| 236 to 237 | CCc1cn(C2CC(O)C(CNC(=O)Cc3ccccc3Br)O2)c(=O)nc1N (centres undefined) |
| > 230 | CCc1nn2c(O)cc(O)nc2c1S(=O)(=O)c1ccccc1 |
| 58 to 61 | CCN(CC)CCCN1CCN(CCN2CCCCC2)C1=C(C#N)C#N |
| 256 to 258 | CC1(C)CCC(C)(C)c2cc(C#Cc3ccc(/C=C/C(=O)O)cc3)ccc21 |
| 158 to 161 | Cc1ccc(S(=O)(=O)Nc2nc(-c3ccc(OCc4ccccc4)c(OCc4ccccc4)c3)cs2)cc1 |
| 62 to 63 | Cc1cc([N+](=O)[O-])c(O)c(Cl)c1C |
| 186 to 190 | NS(=O)(=O)c1ccccc1-c1ccccn1 |
| 71 to 72 | COCc1nc(C(C)(C)O)c(C(=O)OCOC(=O)C(C)(C)C)n1Cc1ccc(-c2ccccc2-c2nnn[nH]2)cc1 |

| melting point [°C] | Structure (SMILES) |
| --- | --- |
| 78 to 79 | CC(C)OC(=O)N1CCN(c2ccn3ncc(Br)c3n2)CC1 |
| 75 | COc1ccc(CN(CCN(C)CCCCCCNC(=O)NCCCOc2cccc(CN3CCCCC3)c2)c2ccccn2)cc1 |
| 120 to 121 | CC(=O)NCc1ccc(CN2CCN(c3ncccn3)CC2)cc1 |
| 35 to 38 | CCOC(=O)c1cc(=O)cc(C)o1 |
| 83 to 98 | CCC1(Cc2ncn(C(c3ccccc3)(c3ccccc3)c3ccccc3)c2C)CCc2c(C)c3ccccc3n2C1=O (centres undefined) |
| 208 to 209 | O=C1N(O)CCC12CCOc1ccc(F)cc12 (centres undefined) |
| 195 to 197 | O=C(Nc1ccccc1F)c1ccccc1CN1C(=O)C2(COc3cc4c(cc32)CCO4)c2ccccc21 (centres undefined) |
| 262 to 263 | CNc1ccccc1-c1nc2ncccc2[nH]1 |
| 140 to 142 | COc1cc([C@H]2CC[C@H](c3cc(OC)c(OC)c(OC)c3)C2=O)cc(OC)c1OC (relative stereo) |
| 226 to 227 | CCCc1nc2c(N)nc3cccnc3c2n1CC1(O)CCC1 |
| 98 to 99 | COc1cc(C(=O)NN2CCN(C3CCCC3)CC2)ccc1Nc1ncc2c(n1)N(C1CCCCC1)CC(F)(F)C(=O)N2C |
| 212 to 214 | COc1ccc2c(c1)CCC(C(O)C(=O)O)C2=O (centres undefined) |
| 274 to 275 | O=C1CCC(c2ccc3c(c2)NC(=O)CO3)=NN1 |
| 102 | COC1(C)CCc2cc(OC(=O)c3ccccc3)c(C)c(C)c2O1 (centres undefined) |
| 172 to 174 | Cc1nc2sc(S(=O)(=O)Cl)cc2c(=O)n1-c1ccccc1Cl |
| 168 to 170 | N#CCC(O)(c1ccccc1C(F)(F)F)c1ccccc1C(F)(F)F |
| 187 to 192 | CCCCCCSc1nn2c(=O)cc(O)nc2s1 |
| > 300 | O=C(Nc1ccccc1)C1Cc2cc(Br)cc3[nH]c(=O)c(=O)n1c23 (centres undefined) |
| 111 to 113 | N#Cc1c(N2CCCC2)cccc1[N+](=O)[O-] |
| 86 to 87 | COC(=O)C[C@]1(C)[C@@H](O)CC[C@H]1C1CCc2cc(OC)ccc2C1 (some centres undefined) |

| melting point [°C] | Structure (SMILES) |
| --- | --- |
| 244 to 246 | CCCCCNc1cccc2c1CN(C1CCC(=O)NC1=O)C2=O (centres undefined) |
| 213 to 217 | O=C(Nc1ccc(N2CCN(C(=O)Nc3ccc(OCCO)cc3Cl)CC2)cc1)Nc1ccccc1F |
| 147 to 148 | COc1ccc(COc2cccc(C(=O)Nc3ccc(C#N)cc3)c2)cc1 |
| 175 to 176 | Cc1cccc(C)c1NC(=O)CN1CCN(CC(O)C2COc3ccccc3O2)CC1 (centres undefined) |
| 152 to 153 | CCC(=O)NCC1CC1c1c(Cl)ccc2nn(C)cc12 (centres undefined) |
| < 50 | c1ccc(CN2CCC3(CC2)OCCCO3)cc1 |
| 242 | Cc1cc2ccccc2c(C2CC(=O)C=C(O)C2)c1C (centres undefined) |
| 160 to 163 | COc1ccc(-c2c(S(C)(=O)=O)ccc(C(=O)c3cnn(C(C)(C)C)c3OC(C)=O)c2C)cc1 |
| 268 to 288 | Oc1ccc2c(-c3noc4cc(O)ccc34)cccc2c1 |
| 208 to 210 | Cc1cc(C)c(Nc2nc(C)ccc2S(=O)(=O)c2ccc(OCc3ccc(C#N)cc3)cc2)c(C)c1 |
| > 300 | O=C(O)c1ccc2c(c1)oc(=O)c1cc(C(=O)O)ccc12 |
| 160 to 162 | COC(=O)[C@@H]1OCN(NS(=O)(=O)c2ccc([N+](=O)[O-])cc2)[C@H]1c1ccccc1 |
| 123 to 124 | COC(=O)C1=C(OS(=O)(=O)c2ccc([N+](=O)[O-])cc2)C(=O)O[C@@H]1C |
| 328 to 330 | N#Cc1cccc(-c2nc(C(N)=O)c3[nH]c(=O)n(-c4ccccc4)c3n2)c1 |
| 185 to 186 | Cc1nc(N2CCN(CCCC(F)(F)F)C2=O)sc1-c1cc[nH]n1 |
| 165 to 167 | COc1ccc(-c2c(Cl)c(COc3ccccn3)nc3sc4c(c23)CCN(Cc2ccccc2)C4)cc1OC |
| 63 to 64 | O=C(CBr)CCc1ccc(Br)cc1 |
| 139 to 141 | O=C1C2=C(CCCC2)C(=O)N1c1c(F)cc(Cl)c2nc(Cl)sc12 |

Reference: a melting point compilation (Tetko et al.; mined from patent text by program, amines drawn as free bases though some values may be those of a salt)
